For orientation: zone of inhibition means the size of the clear area around the sample on an inoculated plate. High values mean a stronger effect on the plate, low ones a weaker effect on the plate.

Drawing on patent publication US9115012B2, “Method of improving the water quality in aquatic ecosystems” (Kemin Industries, Inc., priority 2010, dated 2015), this text covers zone of inhibition for one molecule.

The assay has as its system Vibrio spp. isolated from shrimp pond water. Put plainly: Disk diffusion on Vibrio isolation agar (zone of inhibition). Format: cell-based. As to conditions: 10 μl on disk, extract of 20 g powder in 100 ml water, chloramphenicol 25 μg/ml, 37° C. How it is done:
In another experiment, the effect of the nut gall extract on the growth of Vibrio spp. isolated from shrimp pond water was tested. The extract was prepared by adding 20 g of nut gall powder into 100 ml of water, soaking for one hour followed by centrifugation. Chloramphenicol (25 μg/ml) was taken as positive control. Vibrio isolation agar was prepared and the agar plates were cooled to room temperature. Sterile disk was placed in the centre of agar plate, after inoculating Vibrio spp. using a sterile cotton swab. 10 μl of extract/antibiotic was added to the disk and incubated at 37° C. in an incubator.
(In general: A growth-free zone around the sample is the usual read-out of agar diffusion tests.)

SMILES strings stand for the structures.

As to `O=C(N[C@H](CO)[C@H](O)c1ccc([N+](=O)[O-])cc1)C(Cl)Cl` [Chloramphenicol], the zone of inhibition at 25 µg/mL worked out at 13 mm.
